Test results: article PMC4222822, “Discovery and Characterization of a Potent and Selective Inhibitor of Aedes aegypti Inward Rectifier Potassium Channels” (PLoS ONE, 2014)

What was measured:
AeKir1 = AeKir1 (Aedes aegypti, UniProt L0EQS9); assay: Two-electrode electrophysiology of Xenopus oocytes expressing AeKir1; format: cell-based; details: inward current at −140 mV, 95% CI: 2.3–6.3 µM, n = 4–5 oocytes per concentration, read-out: IC50 of AeKir1 current inhibition
Protocol: AeKir1 and AeKir2B channels were expressed heterologously in Xenopus laevis oocytes as described previously. In brief, defolliculated Xenopus oocytes (purchased from Ecocyte Bioscience, Austin, TX) were injected with 10 ng (0.35 ng/nL) of either AeKir1 or AeKir2B cRNA and cultured for 3–7 days in OR3 media at 18°C. Oocytes injected with 28 nl of nuclease-free H2O served as controls.
All electrophysiological experiments on Xenopus oocytes were performed at room temperature. When present, VU625 was dissolved in solution III or solution V to a final concentration of 0.1, 1, 5, 15, or 50 µM (0.05% DMSO). All solutions were delivered by gravity to a RC-3Z oocyte chamber (Warner Instruments, Hamden, CT) via polyethylene tubing at a flow rate of ∼2 ml/min. Solution changes were made with a Rheodyne Teflon 8-way Rotary valve (Model 5012, Rheodyne, Rohnert Park, CA).
Electrophysiological recordings from oocytes were conducted as described previously In brief, each oocyte was transferred to the holding chamber under superfusion with solution I and impaled with two conventional-glass microelectrodes backfilled with 3 M KCl (resistances of 0.5–1.5 MΩ) to measure membrane potential (Vm) and whole-cell membrane current (Im), respectively. […] All Vm and Im values were recorded by a Digidata 1440A Data Acquisition System (Molecular Devices) and the Clampex module of pCLAMP. […]

Kir7.1(M125R) = target: T1, Kir7.1(M125R) (Homo sapiens, UniProt O60928, M125R); assay: Tl+ flux selectivity assay, Kir7.1(M125R); format: cell-based; details: n = 2 independent experiments in triplicate, read-out: Inhibition of Tl+ flux (IC50)
T1 construct: expressed in transfected cells
T1 sequence (O60928 1-360 M125R): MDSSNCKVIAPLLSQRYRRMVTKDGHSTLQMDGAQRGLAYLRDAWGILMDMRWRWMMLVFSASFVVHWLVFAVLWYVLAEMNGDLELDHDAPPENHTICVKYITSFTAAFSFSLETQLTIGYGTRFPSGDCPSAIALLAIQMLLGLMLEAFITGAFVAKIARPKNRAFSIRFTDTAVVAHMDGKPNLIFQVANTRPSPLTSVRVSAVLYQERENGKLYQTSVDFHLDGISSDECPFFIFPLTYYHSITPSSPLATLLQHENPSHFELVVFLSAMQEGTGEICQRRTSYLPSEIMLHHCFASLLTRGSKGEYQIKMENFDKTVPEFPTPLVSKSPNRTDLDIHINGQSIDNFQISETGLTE

[1] = test system: mammalian Kir channels (Kir1.1, Kir2.1, Kir2.2, Kir2.3, Kir3.1/3.2, Kir4.1, Kir7.1(M125R), Kir6.2/SUR1); assay: Tl+ flux assays against a panel of mammalian Kir channels; format: cell-based; details: vs AeKir1 IC50 = 96.8 nM
Protocol: The plates were transferred to a Hamamatsu Functional Drug Screening System 6000 (FDSS6000; Hamamatsu, Hamamatsu (or Bridgewater, NJ), Japan) where 20 µL/well of test compounds in assay buffer (as prepared below) were added and allowed to incubate with the cells for 20 min. After the incubation period, a baseline recording was collected at 1 Hz for 10 s (excitation 470±20 nm, emission 540±30 nm) followed by a Tl^+ stimulus buffer addition (10 µL/well) and data collection for an additional 4 min. The Tl^+ stimulus buffer contains in (mM) 125 NaHCO3, 1.8 CaSO4, 1 MgSO4, 5 glucose, 12 Tl2SO4, 10 HEPES, pH 7.4. For Tl^+ flux assays on the mammalian channels Kir2.x, Kir4.1 and Kir6.2/SUR1 expressing cells, the Tl^+ stimulus buffer contained 1.8 mM Tl2SO4. Also, Tl^+ flux assays on Kir3.1/3.2/mGlu8 expressing cell, required addition of an EC80 concentration of glutamate (Sigma-Aldrich, St. Louis, MO) with the Tl^+ stimulus buffer.
The test compounds were transferred to daughter polypropylene 384-well plates (Greiner Bio-One, Monroe, NC) using an Echo555 liquid handler (Labcyte, Sunnyvale, CA), and then diluted into assay buffer to generate a 2X stock in 0.6% DMSO (0.3% final). For Tl^+ flux assays on Kir6.2/SUR1 expressing cells, test compounds were diluted in assay buffer containing diazoxide (250 µM final) to induce channel activation. […]

5-HT2B receptor = 5-HT2B receptor (Homo sapiens, UniProt P41595); assay: Radioligand displacement assay, 5-HT2B receptor; format: binding, mammalian; details: 10 µM VU625
[2] = test system: 68 mammalian GPCR's, ion channels, and transporters; assay: Radioligand displacement assays, panel of 68 targets; format: binding; details: 10 µM, active defined as >50% ligand displacement

Chain of 5-HT2B receptor (P41595 whole entry): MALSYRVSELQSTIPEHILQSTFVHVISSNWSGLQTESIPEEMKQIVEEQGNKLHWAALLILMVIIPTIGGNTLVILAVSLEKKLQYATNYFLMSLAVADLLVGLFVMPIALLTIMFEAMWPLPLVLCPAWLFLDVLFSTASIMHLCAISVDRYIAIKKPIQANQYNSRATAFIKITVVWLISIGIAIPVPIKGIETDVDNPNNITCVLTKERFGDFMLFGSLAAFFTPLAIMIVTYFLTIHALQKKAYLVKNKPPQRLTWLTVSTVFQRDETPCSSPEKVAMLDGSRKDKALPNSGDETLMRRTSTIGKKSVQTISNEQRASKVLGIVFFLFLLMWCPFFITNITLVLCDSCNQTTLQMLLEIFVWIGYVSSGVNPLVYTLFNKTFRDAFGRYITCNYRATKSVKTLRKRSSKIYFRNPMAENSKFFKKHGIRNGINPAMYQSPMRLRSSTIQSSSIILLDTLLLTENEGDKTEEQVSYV
Chain of AeKir1 (L0EQS9 entry or part of it): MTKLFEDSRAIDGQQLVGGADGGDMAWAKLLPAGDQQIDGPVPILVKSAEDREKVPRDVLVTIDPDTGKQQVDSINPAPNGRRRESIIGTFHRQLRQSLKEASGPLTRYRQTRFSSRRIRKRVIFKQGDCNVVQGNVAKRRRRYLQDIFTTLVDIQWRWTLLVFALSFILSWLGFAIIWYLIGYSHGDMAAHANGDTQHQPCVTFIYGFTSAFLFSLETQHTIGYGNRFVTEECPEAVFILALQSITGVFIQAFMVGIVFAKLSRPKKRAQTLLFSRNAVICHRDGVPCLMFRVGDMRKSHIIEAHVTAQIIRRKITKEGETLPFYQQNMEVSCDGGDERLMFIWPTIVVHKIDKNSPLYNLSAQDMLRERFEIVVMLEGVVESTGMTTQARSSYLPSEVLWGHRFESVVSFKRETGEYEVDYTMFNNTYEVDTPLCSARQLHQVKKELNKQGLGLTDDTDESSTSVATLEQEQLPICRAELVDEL

Q: With CCC(=O)N1c2ccc(S(=O)(=O)Nc3cccc(OC)c3)cc2CC1C (centres unmarked) [VU625, N-(3-methoxyphenyl)-2-methyl-1-propionylindoline-5-sulfonamide] as the molecule, how does the IC50 (AeKir1) read?
A: 3.8 µM

Q: What about the IC50 (Kir7.1(M125R)) of the same molecule?
A: > 30 µM

Q: And the “selectivity for the AeKir1 channel over 8 mammalian Kir channels” value [1]?
A: greater than 80 fold

Q: What about the radioligand displacement (5-HT2B receptor) of the same molecule?
A: 69%

Q: What about the “activity in radioligand displacement panel” value [2] of the same molecule?
A: against only three targets
